Measurements as given in patent US20190367516A1 (Bayer Pharma Aktiengesellschaft, priority 2015, published 2019).
Where two headings read alike, the source gives them in different places.

Target: T1, human M2 receptor (Homo sapiens, UniProt P08172)
T1 sequence (P08172 1-466): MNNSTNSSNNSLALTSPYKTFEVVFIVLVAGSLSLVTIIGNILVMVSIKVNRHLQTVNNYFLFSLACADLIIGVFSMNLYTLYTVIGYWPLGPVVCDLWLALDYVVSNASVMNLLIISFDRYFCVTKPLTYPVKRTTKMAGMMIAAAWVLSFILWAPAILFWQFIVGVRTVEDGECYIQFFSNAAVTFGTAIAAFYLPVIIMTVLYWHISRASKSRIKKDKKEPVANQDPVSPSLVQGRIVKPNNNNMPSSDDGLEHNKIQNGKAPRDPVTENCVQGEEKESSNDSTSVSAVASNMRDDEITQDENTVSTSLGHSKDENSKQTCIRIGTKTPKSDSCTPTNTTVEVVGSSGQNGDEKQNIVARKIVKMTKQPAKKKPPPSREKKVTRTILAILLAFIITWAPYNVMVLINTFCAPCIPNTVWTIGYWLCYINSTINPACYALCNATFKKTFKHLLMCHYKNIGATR
Settings: for Emax: read-out: Efficiency, boosting of the acetylcholine effect at EC20 acetylcholine concentration

[1] = Receptor activity EC50, M2-GIRK1/4 activation test, acetylcholine at EC20, allosteric potency, in some cases mean values from two or more determinations
[2] = Receptor activity EC50, allosteric potency at EC20 acetylcholine, M2-GIRK1/4 reporter cells, in some cases mean of two or more determinations

| Structure (SMILES) | EC50 [1] [nM] | EC50 [2] [nM] | Emax (M2-GIRK1/4 reporter cells) [%] | Efficiency (boosting of the acetylcholine effect at EC20 acetylcholine concentration, M2-GIRK1/4 reporter cells) [%] |
| --- | --- | --- | --- | --- |
| O=C(N[C@H](c1ccccc1Cl)C(F)(F)F)c1cn(-c2ccc(F)cc2F)c2nc(N3CCCC(O)C3=O)ccc2c1=O (single isomer, unassigned) [Example 210] | 285 |  |  |  |
| O=C(NC(C1CC1)C(F)(F)F)c1cn(-c2ccc(F)cc2F)c2nc(N3C[C@@H](O)CC3=O)ccc2c1=O (mixture of isomers) [Example 283] | 40 |  |  |  |
| O=C(NCc1c(Cl)cccc1Cl)c1cn(-c2ccc(F)cc2F)c2nc(N3CC(O)CC3=O)ccc2c1=O (centres unmarked) [compound 183] | 166 |  |  |  |
| O=C(N[C@@H](C1CC1)C(F)(F)F)c1cn(-c2c(F)cc(F)cc2F)c2nc(N3CCC(F)(CO)CC3)ccc2c1=O [Example 461, N-[(1 S)-1-Cyclopropyl-2,2,2-trifluoroethyl]-7-[4-fluoro-4-(hydroxymethyl)piperidin-1-yl]-4-oxo-1-(2,4,6-trifluorophenyl)-1,4-dihydro-1,8-naphthyridine-3-carboxamide] |  | 39 | 89 |  |
| CC[C@H](NC(=O)c1cn(-c2c(F)cccc2F)c2nc(N3CCC(C)(O)C3)ccc2c1=O)C(F)(F)F (stereo partly drawn) [Example 327, 1-(2,6-Difluorophenyl)-7-[3-hydroxy-3-methylpyrrolidin-1-yl]-4-oxo-N-[(2S)-1,1,1-trifluorobutan-2-yl]-1,4-dihydro-1,8-naphthyridine-3-carboxamide] | 69 |  |  |  |
| CC[C@@H](NC(=O)c1cn(-c2ccc(F)cc2F)c2nc(N3CCCCC3=O)ccc2c1=O)C(F)(F)F [Example 178] | 197 |  |  |  |
| CN(C)c1ccc2c(=O)c(C(=O)NC(C)(C)c3c(F)cccc3F)cn(-c3ccc(F)cc3F)c2n1 [Example 53, 1-(2,4-Difluorophenyl)-N-[2-(2,6-difluorophenyl)propan-2-yl]-7-(dimethylamino)-4-oxo-1,4-dihydro-1,8-naphthyridine-3-carboxamide] | 58 |  |  |  |
| CC(NC(=O)c1cn(-c2ccc(F)cc2F)c2nc(N3C[C@@H](O)CC3=O)ccc2c1=O)C(F)(F)C(F)(F)F (single isomer, unassigned) [Example 624] |  | 140 |  | 96.5 |
| CC[C@@H](NC(=O)c1cn(-c2ccc(F)cc2F)c2nc(N3CCCC3=O)ccc2c1=O)C(F)(F)F [Example 337, 1-(2,4-Difluorophenyl)-4-oxo-7-(2-oxopyrrolidin-1-yl)-N-[(2R)-1,1,1-trifluorobutan-2-yl]-1,4-dihydro-1,8-naphthyridine-3-carboxamide] | 36 |  |  |  |
| O=C(N[C@H](C1CC1)C(F)(F)F)c1cn(-c2c(F)cc(F)cc2Cl)c2nc(N3CC4CC4(O)C3)ccc2c1=O (mixture of isomers) [Example 415, 1-(2-Chloro-4,6-difluorophenyl)-N-[(1R)-1-cyclopropyl-2,2,2-trifluoroethyl]-7-[1-hydroxy-3-azabicyclo[3.1.0]hex-3-yl]-4-oxo-1,4-dihydro-1,8-naphthyridine-3-carboxamide] |  | 6 | 96 |  |
| CNc1ccc2c(=O)c(C(=O)NC34CCC(CC3)CC4)cn(-c3ccc(F)cc3F)c2n1 [Example 162] | 38 |  |  |  |
| CC(COC(F)(F)F)NC(=O)c1cn(-c2ccc(F)cc2F)c2nc(N3CCCC3=O)ccc2c1=O (racemic) [Example 230, rac-1-(2,4-Difluorophenyl)-4-oxo-7-(2-oxopyrrolidin-1-yl)-N-[1-(trifluoromethoxy)propan-2-yl]-1,4-dihydro-1,8-naphthyridine-3-carboxamide] | 203 |  |  |  |
| CC[C@@H](NC(=O)c1cn(-c2c(F)cccc2F)c2nc(N3CCNC3=O)ccc2c1=O)C(F)(F)F [Example 638, 1-(2,6-Difluorophenyl)-4-oxo-7-(2-oxoimidazolidin-1-yl)-N-[(2R)-1,1,1-trifluorobutan-2-yl]-1,4-dihydro-1,8-naphthyridine-3-carboxamide] |  | 63 | 100 |  |

Now from value to compound:

| EC50 [1] [nM] | EC50 [2] [nM] | Emax (M2-GIRK1/4 reporter cells) [%] | Efficiency (boosting of the acetylcholine effect at EC20 acetylcholine concentration, M2-GIRK1/4 reporter cells) [%] | Structure (SMILES) |
| --- | --- | --- | --- | --- |
| 94 |  |  |  | CC[C@@H](NC(=O)c1cn(-c2ccc(F)cc2F)c2nc(N3CC(O)C(C)(C)C3)ccc2c1=O)C(F)(F)F (stereo partly drawn) [Example 356, 1-(2,4-Difluorophenyl)-7-[4-hydroxy-3,3-dimethylpyrrolidin-1-yl]-4-oxo-N-[(2R)-1,1,1-trifluorobutan-2-yl]-1,4-dihydro-1,8-naphthyridine-3-carboxamide] |
| 104 |  |  |  | CN(C)c1ccc2c(=O)c(C(=O)Nc3c(F)cccc3F)cn(-c3ccc(F)cc3F)c2n1 [Example 52, 1-(2,4-Difluorophenyl)-N-(2,6-difluorophenyl)-7-(dimethylamino)-4-oxo-1,4-dihydro-1,8-naphthyridine-3-carboxamide] |
| 17 |  |  |  | CN(C)c1ccc2c(=O)c(C(=O)NC34CCC(C)(CC3)CC4)cn(-c3ccc(F)cc3F)c2n1 [Example 42, 1-(2,4-Difluorophenyl)-7-(dimethylamino)-N-(4-methylbicyclo[2.2.2]oct-1-yl)-4-oxo-1,4-dihydro-1,8-naphthyridine-3-carboxamide] |
| 49 |  |  |  | O=C(N[C@@H](C1CC1)C(F)(F)F)c1cn(-c2c(F)cc(F)cc2F)c2nc(N3CCOC3=O)ccc2c1=O [Example 374, N-[(1S)-1-Cyclopropyl-2,2,2-trifluoroethyl]-4-oxo-7-(2-oxo-1,3-oxazolidin-1.3-yl)-1-(2,4,6-trifluorophenyl)-1,4-dihydro-1,8-naphthyridine-3-carboxamide] |
|  | 69 | 91.3 |  | CC[C@@H](NC(=O)c1cn(-c2ccc(F)cc2F)c2nc(N3C(=O)CC(O)C3C)ccc2c1=O)C(F)(F)F (stereo partly drawn) [Example 640, 1-(2,4-Difluorophenyl)-7-[3-hydroxy-2-methyl-5-oxopyrrolidin-1-yl]-4-oxo-N-[(2R)-1,1,1-trifluorobutan-2-yl]-1,4-dihydro-1,8-naphthyridine-3-carboxamide] |
| 28 |  |  |  | CC[C@H](NC(=O)c1cn(-c2ccc(F)cc2F)c2nc(N(C)C)ccc2c1=O)C(F)(F)F [Example 45, 1-(2,4-Difluorophenyl)-7-(dimethylamino)-4-oxo-N-[(2S)-1,1,1-trifluorobutan-2-yl]-1,4-dihydro-1,8-naphthyridine-3-carboxamide] |
|  | 42 | 97.5 |  | O=C(N[C@@H](C1CC1)C(F)(F)F)c1cn(-c2c(F)cc(F)cc2F)c2nc(N3CC[C@H](O)C3=O)ccc2c1=O [Example 467, N-[(1 S)-1-Cyclopropyl-2,2,2-trifluoroethyl]-7-[(3S)-3-hydroxy-2-oxopyrrolidin-1-yl]-4-oxo-1-(2,4,6-trifluorophenyl)-1,4-dihydro-1,8-naphthyridine-3-carboxamide] |
|  | 31 | 99.5 |  | CC[C@H](NC(=O)c1cn(-c2c(F)cc(F)cc2F)c2nc(N(C)C[C@@H](C)O)ccc2c1=O)C(F)(F)F [Example 495] |
|  | 7 | 93.5 |  | CC(NC(=O)c1cn(-c2c(F)cc(F)cc2F)c2nc(N3C[C@@H](O)CC3=O)ccc2c1=O)(C1CC1)C(F)(F)F (mixture of isomers) [Example 508, N-[2-Cyclopropyl-1,1,1-trifluoropropan-2-yl]-7-[(4S)-4-hydroxy-2-oxopyrrolidin-1-yl]-4-oxo-1-(2,4,6-trifluorophenyl)-1,4-dihydro-1,8-naphthyridine-3-carboxamide] |
|  | 10 | 91 |  | O=C(NC(CC(F)(F)F)C1CC1)c1cn(-c2c(F)cc(F)cc2F)c2nc(N3C[C@@H](O)CC3=O)ccc2c1=O (single isomer, unassigned) [Example 513] |
| 78 |  |  |  | CC[C@@H](NC(=O)c1cn(-c2c(F)cccc2F)c2nc(N3CCC(C)(O)C3)ccc2c1=O)C(F)(F)F (single isomer, unassigned) [Example 277] |
|  | 43 | 93 |  | CC(NC(=O)c1cn(-c2ccc(F)cc2F)c2nc(N3C[C@@H](O)CC3=O)ccc2c1=O)C(F)(F)C(F)(F)F (mixture of isomers) [Example 622, 1-(2,4-Difluorophenyl)-7-[(4S)-4-hydroxy-2-oxopyrrolidin-1-yl]-4-oxo-N-[3,3,4,4,4-pentafluorobutan-2-yl]-1,4-dihydro-1,8-naphthyridine-3-carboxamide] |
|  | 28 | 99 |  | CCC(COC(F)(F)F)NC(=O)c1cn(-c2c(F)cc(F)cc2F)c2nc(N3CCNC3=O)ccc2c1=O (racemic) [Example 609, 4-Oxo-7-(2-oxoimidazolidin-1-yl)-N-[1-(trifluoromethoxy)butan-2-yl]-1-(2,4,6-trifluorophenyl)-1,4-dihydro-1,8-naphthyridine-3-carboxamide] |
|  | 23 | 98.5 |  | O=C(N[C@@H](C1CC1)C(F)(F)F)c1cn(-c2c(F)cc(F)cc2F)c2nc(N3CCC(CO)C3=O)ccc2c1=O (some centres unmarked) [Example 468, N-[(1 S)-1-Cyclopropyl-2,2,2-trifluoroethyl]-7-[3-(hydroxymethyl)-2-oxopyrrolidin-1-yl]-4-oxo-1-(2,4,6-trifluorophenyl)-1,4-dihydro-1,8-naphthyridine-3-carboxamide] |
|  | 83 | 100 |  | NC(=O)N1CCN(c2ccc3c(=O)c(C(=O)N[C@H](C4CC4)C(F)(F)F)cn(-c4c(F)cc(F)cc4F)c3n2)CC1 [Example 650, 7-(4-Carbamoylpiperazin-1-yl)-N-[(1R)-1-cyclopropyl-2,2,2-trifluoroethyl]-4-oxo-1-(2,4,6-trifluorophenyl)-1,4-dihydro-1,8-naphthyridine-3-carboxamide] |
